# Measurements: EP4162935B1 (UNIVERSIDADE NOVA DE LISBOA, priority 2021, dated 2023)
# Columns and labels:
# [1] = oral administration of a single dose of 300 mg/kg and 2000 mg/kg, 14 days of observation; cited from earlier work
# SARS-CoV-2 = SARS-CoV-2 cell infection assay in Vero E6 cells, intracellular ATP levels (CellTiter-Glo) and cytopathic effect
compound,measurement,setting,value
"COc1ccc(-c2cc(=O)c3c(O)cc(O)cc3o2)cc1O [diosmetin, 5,7-Dihydroxy-2-(3-hydroxy-4-methoxyphenyl)-4H-benzopyran-4-one]",signs of toxicity or mortality,[1],did not demonstrate any signs of toxicity or mortality
same,duration of antiviral effect,SARS-CoV-2; 45 µM,72 h
same,optimal concentration,"SARS-CoV-2; same as in µM, Vero E6 cells, 30 pfu SARS-CoV-2, 72h",13.5 µg/mL
